Each compound was assayed against T1, MGL (Rattus norvegicus, UniProt Q8R431) (assay: 2-AG accumulation assay in rat brain homogenate). Conditions: rat brain homogenate; compound 1 μM; 2-AG accumulation as percent of vehicle; read-out: Rat Brain 2AG % VehCntrl (%) @ 1 μM.
T1 construct: one g rat brain was homogenized using a Polytron homogenizer; from tissue; host or cells: rat brain homogenate
T1 sequence (Q8R431 1-303): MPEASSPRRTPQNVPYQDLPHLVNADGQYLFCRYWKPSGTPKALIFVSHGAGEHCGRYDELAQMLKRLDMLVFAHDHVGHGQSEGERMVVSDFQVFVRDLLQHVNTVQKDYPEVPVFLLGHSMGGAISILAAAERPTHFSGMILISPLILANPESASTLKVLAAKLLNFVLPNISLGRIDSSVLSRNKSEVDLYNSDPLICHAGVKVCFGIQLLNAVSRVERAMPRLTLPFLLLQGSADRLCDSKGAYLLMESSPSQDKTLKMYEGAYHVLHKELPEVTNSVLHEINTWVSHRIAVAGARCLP
Format: biochemical

2-AG accumulation, % of vehicle control at 1 µM	SMILES
626%	O=C(c1ccc(C(F)(F)c2ccccc2)cc1)N1CC(N2CCN(C(=O)c3nccs3)CC2)C1 [Cpd 986, 1-[1-({4-[Difluoro(phenyl)methyl]phenyl}carbonyl)azetidin-3-yl]-4-(1,3-thiazol-2-ylcarbonyl)piperazine]
140%	Cc1cc(C(=O)N2CC(N3CCN(C(=O)c4ccccc4)CC3)C2)ccc1-c1ccc(Cl)c(C(F)(F)F)c1 [Cpd 260, 1-(1-{[4′-Chloro-2-methyl-3′-(trifluoromethyl)biphenyl-4-yl]carbonyl}azetidin-3-yl)-4-(phenylcarbonyl)piperazine]
140%	O=C(c1ccccc1)N1CCN(C2CN(C(=O)c3ccc(-c4ccc(C(F)(F)F)s4)cc3)C2)CC1 [Cpd 581, 1-(Phenylcarbonyl)-4-[1-({4-[5-(trifluoromethyl)thiophen-2-yl]phenyl}carbonyl)azetidin-3-yl]piperazine]
867%	O=C(c1ccc(C(F)(F)F)cc1)N1CCc2cc(C(=O)N3CC(N4CCN(C(=O)c5nccs5)CC4)C3)ccc2C1 [Cpd 907, 6-({3-[4-(1,3-Thiazol-2-ylcarbonyl)piperazin-1-yl]azetidin-1-yl}carbonyl)-2-{[4-(trifluoromethyl)phenyl]carbonyl}-1,2,3,4-tetrahydroisoquinoline]
703%	O=C(c1ccc(Sc2cccc(C(F)(F)F)c2)cc1)N1CC(N2CCN(C(=O)c3nccs3)CC2)C1 [Cpd 431]
896%	O=C(c1ccc2c(c1)CCN(S(=O)(=O)C1CCCCC1)C2)N1CC(N2CCN(C(=O)c3nccs3)CC2)C1 [Cpd 906]

Same assay, conditions: rat brain homogenate; compound 10 μM; 2-AG accumulation as percent of vehicle; read-out: Rat Brain 2AG % VehCntrl (%) @ 10 μM

2-AG accumulation, % of vehicle control at 10 µM	SMILES
906%	COC(=O)C=Cc1ccc(-c2ccc(C(=O)N3CC(N4CCN(C(=O)c5nccs5)CC4)C3)cc2)cc1 [Cpd 224, Methyl 3-[4′-({3-[4-(1,3-thiazol-2-ylcarbonyl)piperazin-1-yl]azetidin-1-yl}carbonyl)biphenyl-4-yl]prop-2-enoate]
993%	CC(C)(C)OC(=O)Nc1cccc(-c2ccc(C(=O)N3CC(N4CCN(C(=O)c5nccs5)CC4)C3)cc2)c1 [Cpd 220, tert-Butyl [4′-({3-[4-(1,3-thiazol-2-ylcarbonyl)piperazin-1-yl]azetidin-1-yl}carbonyl)biphenyl-3-yl]carbamate]
201%	O=C(CCc1ccc(Cl)c(Cl)c1)N1CC(N2CCN(C(=O)c3nccs3)CC2)C1 [Cpd 281, 1-{1-[3-(3,4-Dichlorophenyl)propanoyl]azetidin-3-yl}-4-(1,3-thiazol-2-ylcarbonyl)piperazine]
764%	O=C(c1ccc(-c2cccc(O)c2)cc1)N1CC(N2CCN(C(=O)c3nccs3)CC2)C1 [Cpd 218, 4′-({3-[4-(1,3-Thiazol-2-ylcarbonyl)piperazin-1-yl]azetidin-1-yl}carbonyl)biphenyl-3-ol]
945%	CC(C)COc1cccc(-c2ccc(C(=O)N3CC(N4CCN(C(=O)c5nccs5)CC4)C3)cc2)c1 [Cpd 221, 1-(1-{[3′-(2-Methylpropoxy)biphenyl-4-yl]carbonyl}azetidin-3-yl)-4-(1,3-thiazol-2-ylcarbonyl)piperazine]
703%	COc1cccc(-c2ccc(C(=O)N3CC(N4CCN(C(=O)c5nccs5)CC4)C3)cc2)c1 [Cpd 180, 1-{1-[(3′-Methoxybiphenyl-4-yl)carbonyl]azetidin-3-yl}-4-(1,3-thiazol-2-ylcarbonyl)piperazine]
768%	Cc1ccc(F)cc1-c1ccc(C(=O)N2CC(N3CCN(C(=O)c4nccs4)CC3)C2)cc1 [Cpd 177, 1-{1-[(5′-Fluoro-2′-methylbiphenyl-4-yl)carbonyl]azetidin-3-yl}-4-(1,3-thiazol-2-ylcarbonyl)piperazine]

The compounds below were run against T2, mutant MGL (Homo sapiens, UniProt Q99685, L169S/L176S) (assay: MGL ThermoFluor assay - mutant). Conditions: ThermoFluor concentration-response, read-out: MGL mutant ThermoFluor Kd.
T2 sequence (Q99685 1-303 L169S/L176S): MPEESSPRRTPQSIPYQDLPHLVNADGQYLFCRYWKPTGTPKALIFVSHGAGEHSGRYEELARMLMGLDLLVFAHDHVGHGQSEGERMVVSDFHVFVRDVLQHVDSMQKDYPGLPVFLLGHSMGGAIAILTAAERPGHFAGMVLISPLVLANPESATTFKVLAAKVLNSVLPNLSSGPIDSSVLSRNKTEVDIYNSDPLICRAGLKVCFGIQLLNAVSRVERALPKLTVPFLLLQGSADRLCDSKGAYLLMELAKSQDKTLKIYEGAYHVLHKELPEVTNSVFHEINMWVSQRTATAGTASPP
Format: binding

Kd	SMILES
0.005 µM	O=C(c1ccc(C(F)(F)c2ccccc2)cc1)N1CC(N2CCN(C(=O)c3nccs3)CC2)C1 [Cpd 986, 1-[1-({4-[Difluoro(phenyl)methyl]phenyl}carbonyl)azetidin-3-yl]-4-(1,3-thiazol-2-ylcarbonyl)piperazine]

Same assay, conditions: ThermoFluor thermal stability binding assay, read-out: MGL mutant ThermoFluor Kd

Kd	SMILES
0.02 µM	Cc1cc(C(=O)N2CC(N3CCN(C(=O)c4ccccc4)CC3)C2)ccc1-c1ccc(Cl)c(C(F)(F)F)c1 [Cpd 260, 1-(1-{[4′-Chloro-2-methyl-3′-(trifluoromethyl)biphenyl-4-yl]carbonyl}azetidin-3-yl)-4-(phenylcarbonyl)piperazine]

Source: patent publication US8362000B2, “Azetidinyl diamides as monoacylglycerol lipase inhibitors” (Janssen Pharmaceutica NV, priority 2009, dated 2013)
